We go through seven molecules from US20260098026A1, “M4 ACTIVATORS/MODULATORS AND USES THEREOF” (Cerevel Therapeutics, LLC, priority 2022, published 2026).

Common to all, as to assay type: cell-based
For assay [1], the target named is T1, M3 muscarinic acetylcholine receptor (mAChR) (Homo sapiens, UniProt P20309).
T1 construct: expressed in transfected cells; host or cells: CHO-K1
Put plainly: FLIPR calcium assay (Fluo 8), M3-overexpressing CHO-K1 cells. A digest of the protocol: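 CHO-K1 cells overexpressing each human receptor seeded at 15,000 per well, grown overnight at 37° C., 5% CO2, then loaded with Fluo-8 for 30 min. Compounds in HBSS added and calcium response read on FLIPR; EC50 and Emax calculated per subtype.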

Assay [2] deals with T2, M1 muscarinic acetylcholine receptor (mAChR) (Homo sapiens, UniProt P11229).
T2 construct: expressed in transfected cells; host or cells: CHO-K1
T2 sequence (P11229 1-460): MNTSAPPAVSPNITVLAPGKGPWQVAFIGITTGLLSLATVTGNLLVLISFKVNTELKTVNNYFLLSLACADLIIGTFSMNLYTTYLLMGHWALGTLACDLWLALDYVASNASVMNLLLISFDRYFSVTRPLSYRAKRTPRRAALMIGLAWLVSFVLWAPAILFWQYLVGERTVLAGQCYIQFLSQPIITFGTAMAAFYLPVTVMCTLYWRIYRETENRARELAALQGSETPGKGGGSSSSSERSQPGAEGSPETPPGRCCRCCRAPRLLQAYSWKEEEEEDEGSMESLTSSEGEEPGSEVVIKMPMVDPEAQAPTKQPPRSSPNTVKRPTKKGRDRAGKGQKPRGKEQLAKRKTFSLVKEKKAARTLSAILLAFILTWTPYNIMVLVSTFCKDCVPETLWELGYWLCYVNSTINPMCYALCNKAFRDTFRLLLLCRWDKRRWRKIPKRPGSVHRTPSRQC
Put plainly: FLIPR calcium assay (Fluo 8), M1-overexpressing CHO-K1 cells. As for the experimental part:
(§1) Stimulation of a Gq-coupled G-protein coupled receptors (GPCRs), result in an efflux of calcium from the endoplasmic reticulum to the cytoplasm (Berridge, 1993), thus rendering this assay appropriate for the assessment of M1, M3 and M5 receptors. CHO-K1 cells overexpressing the M1, M3, or M5 muscarinic acetylcholine receptor (mAChR) were dispensed at 15,000 cells per well in 30 μl volume to 384-well plates and grown overnight at 37° C. in a 5% CO2 atmosphere. Fluo-8 Solution, 10 μl per well, was added to each well and incubated for 30 minutes at 37° C. in a 5% CO2 atmosphere. Compounds diluted in Hanks' balanced salt solution (HBSS) were transferred to the cell assay plate at 10 μl per well, and then read on a FLIPR instrument. EC50 and Emax figures were calculated from the resulting data for each receptor subtype.

The target in assay [3] is T3, M4 mAChR (Homo sapiens, UniProt P08173).
T3 construct: expressed in transfected cells; host or cells: CHO-K1
T3 sequence (P08173 1-479): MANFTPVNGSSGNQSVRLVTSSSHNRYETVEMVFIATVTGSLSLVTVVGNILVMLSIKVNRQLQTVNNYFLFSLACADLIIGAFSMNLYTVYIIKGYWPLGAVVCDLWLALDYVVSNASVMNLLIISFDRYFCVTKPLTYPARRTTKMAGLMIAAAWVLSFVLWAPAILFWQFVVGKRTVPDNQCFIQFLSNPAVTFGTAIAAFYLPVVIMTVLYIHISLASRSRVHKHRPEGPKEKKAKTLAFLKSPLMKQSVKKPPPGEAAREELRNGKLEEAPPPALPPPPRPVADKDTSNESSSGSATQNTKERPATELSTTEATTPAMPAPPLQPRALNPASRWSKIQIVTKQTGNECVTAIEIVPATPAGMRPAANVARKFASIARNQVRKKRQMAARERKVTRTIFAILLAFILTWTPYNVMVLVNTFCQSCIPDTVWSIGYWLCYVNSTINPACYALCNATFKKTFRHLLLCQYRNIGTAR
The assay is described as follows: cAMP TR-FRET assay with forskolin, M4-overexpressing CHO-K1 cells. The method, boiled down:
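CHO-K1 cells overexpressing the receptor were stimulated with forskolin to raise cAMP, so that Gi-mediated agonist decreases could be measured. cAMP was quantified by TR-FRET competition between cellular cAMP and labelled donor for anti-cAMP antibody, giving potency and efficacy.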

Assay [4] has as its target T4, M5 muscarinic acetylcholine receptor (mAChR) (Homo sapiens, UniProt P08912).
T4 construct: expressed in transfected cells; host or cells: CHO-K1
T4 sequence (P08912 1-532): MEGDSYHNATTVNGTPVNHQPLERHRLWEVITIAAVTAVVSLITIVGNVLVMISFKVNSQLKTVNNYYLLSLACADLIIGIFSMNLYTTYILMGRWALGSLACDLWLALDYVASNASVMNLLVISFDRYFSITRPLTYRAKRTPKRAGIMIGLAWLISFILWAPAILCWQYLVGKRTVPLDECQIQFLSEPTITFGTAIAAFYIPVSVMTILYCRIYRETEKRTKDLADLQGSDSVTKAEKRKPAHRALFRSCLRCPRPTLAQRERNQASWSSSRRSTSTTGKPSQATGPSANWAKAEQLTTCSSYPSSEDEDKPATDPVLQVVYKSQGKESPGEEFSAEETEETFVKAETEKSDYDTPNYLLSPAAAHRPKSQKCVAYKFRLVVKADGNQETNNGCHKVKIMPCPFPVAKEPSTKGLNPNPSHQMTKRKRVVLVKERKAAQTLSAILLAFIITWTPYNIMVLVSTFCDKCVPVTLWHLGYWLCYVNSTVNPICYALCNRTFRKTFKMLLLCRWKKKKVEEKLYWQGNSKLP
Put plainly: FLIPR calcium assay (Fluo 8), M5-overexpressing CHO-K1 cells. As for the experimental part: as §1

The target of assay [5] is T5, M2 mAChR (Homo sapiens, UniProt P08172).
T5 construct: expressed in transfected cells; host or cells: CHO-K1
T5 sequence (P08172 1-466): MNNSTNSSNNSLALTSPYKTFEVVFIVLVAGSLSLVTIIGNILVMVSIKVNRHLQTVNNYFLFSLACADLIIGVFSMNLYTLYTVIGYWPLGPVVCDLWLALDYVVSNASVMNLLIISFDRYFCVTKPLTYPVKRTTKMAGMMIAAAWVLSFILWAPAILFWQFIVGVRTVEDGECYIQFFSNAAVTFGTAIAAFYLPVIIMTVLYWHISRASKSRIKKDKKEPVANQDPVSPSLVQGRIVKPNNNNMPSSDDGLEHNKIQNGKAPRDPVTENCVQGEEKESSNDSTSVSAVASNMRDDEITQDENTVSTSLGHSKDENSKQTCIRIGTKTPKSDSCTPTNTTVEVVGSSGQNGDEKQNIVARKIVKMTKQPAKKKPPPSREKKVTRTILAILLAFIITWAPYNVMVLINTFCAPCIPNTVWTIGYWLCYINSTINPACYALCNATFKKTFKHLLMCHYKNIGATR
Put plainly: cAMP TR-FRET assay with forskolin, M2-overexpressing CHO-K1 cells. The text has this:
The M2 and M4 mACh receptors are Gi-coupled receptors which, upon activation, produce a decrease in cAMP. Assays were developed that measured the potency and efficacy of compounds at the M2 or M4 mAChR using M2- or M4-overexpressing CHO-K1 cell lines. Time-resolved fluorescence resonance energy transfer (TR-FRET) technology was used, where signal occurs as a result of transfer of energy if the donor molecule is in close proximity to an acceptor molecule when the molecules have bound to the molecule of interest. The cAMP detection is a competition binding assay, where cAMP produced by cells competes for binding with the labeled donor molecule to the anti-cAMP acceptor antibody. Due to the low basal levels of cAMP in the CHO-K1 cell line, forskolin was used to increase cAMP levels to enable assessment of agonist activity at the mAChR of interest.

Some results are limits rather than exact numbers.

T1 sequence (P20309 whole entry): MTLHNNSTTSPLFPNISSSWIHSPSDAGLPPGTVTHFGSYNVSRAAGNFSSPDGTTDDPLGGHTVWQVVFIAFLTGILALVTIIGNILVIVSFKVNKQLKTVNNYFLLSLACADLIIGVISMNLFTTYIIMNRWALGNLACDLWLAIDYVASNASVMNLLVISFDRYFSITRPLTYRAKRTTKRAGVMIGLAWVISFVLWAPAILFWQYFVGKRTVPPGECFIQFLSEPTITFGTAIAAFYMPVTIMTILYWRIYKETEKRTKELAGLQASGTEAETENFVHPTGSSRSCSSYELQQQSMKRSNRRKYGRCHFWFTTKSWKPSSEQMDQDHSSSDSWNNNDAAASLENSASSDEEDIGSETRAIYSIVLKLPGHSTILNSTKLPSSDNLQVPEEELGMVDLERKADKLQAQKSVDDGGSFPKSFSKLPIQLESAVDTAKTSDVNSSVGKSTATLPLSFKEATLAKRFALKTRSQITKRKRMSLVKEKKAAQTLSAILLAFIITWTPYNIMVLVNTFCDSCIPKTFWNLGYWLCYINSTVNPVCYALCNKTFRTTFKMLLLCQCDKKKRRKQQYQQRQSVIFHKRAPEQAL

Turning to `CCOC(=O)N1CC2(CC[C@@H](N3CCN(c4cc(F)cnc4-c4cnc(SC)nc4)CC3)C2)C1` [Compound A63], the EC50 (usually the concentration at which the effect is half-maximal) in assay [1] (FLIPR calcium) is more than 10 µM. Further, the maximal response (Emax) (as a rule, the size of the effect at its maximum, as opposed to the concentration needed) is 19 to 49.9% in assay [2] (FLIPR calcium), 80 to 100% in assay [3] (cAMP TR-FRET with forskolin) and 19 to 49.9% in assay [4] (FLIPR calcium).
For the molecule `CCOC(=O)N1CC2(CC[C@@H](N3CCN(c4cc(F)cnc4C4CCOCC4)CC3)C2)C1` [Compound A7, ethyl (6R)-6-[4-(5-fluoro-2-tetrahydropyran-4-yl-3-pyridyl)piperazin-1-yl]-2-azaspiro[3.4]octane-2-carboxylate], the EC50 in assay [1] (FLIPR calcium) was more than 10 µM. The Emax in assay [3] (cAMP TR-FRET with forskolin) was in the range of 80 to 100%. Moreover, in assay [5] (cAMP TR-FRET with forskolin), the “M2 EC50 (nM)” value is “I.A”.
Regarding `CCOC(=O)N1CC2(CC[C@@H](N3CCN(c4cc(F)cnc4-c4ccc(=O)[nH]c4)CC3)C2)C1` [Compound A210], in assay [1] (FLIPR), the EC50 was more than 10 µM. The Emax in assay [2] (FLIPR) is 50 to 79.9%; in assay [3] (cAMP assay) it was 80 to 100%; in assay [4] (FLIPR), 19 to 49.9%.
Consider `CCNc1ncc(-c2ncc(F)cc2N2CCN([C@@H]3CCC4(C3)CN(C(=O)OCC)C4)CC2)cn1` [Compound A80], for which the EC50 in assay [1] (FLIPR calcium) was more than 10 µM. The figures for the Emax in assay [2] (FLIPR calcium), in assay [3] (cAMP TR-FRET with forskolin) and in assay [4] (FLIPR calcium) were 19 to 49.9%, 80 to 100% and 19 to 49.9%, respectively.
Take `CCOC(=O)N1CC2(CC[C@@H](N3CCN(c4cc(F)cnc4-c4cnn(C(F)F)c4)CC3)C2)C1` [Compound A194]: the EC50 in assay [1] (FLIPR) was more than 10 µM. Besides, the Emax is 80 to 100% in assay [3] (cAMP assay) and less than 19% in assay [5] (cAMP assay).
For the molecule `CCOC(=O)N1CC2(CC[C@@H](N3CCN(c4cc(F)cnc4-c4c[nH]c(=O)c(F)c4)CC3)C2)C1` [Compound A206], the concentration giving a half-maximal response (EC50) in assay [1] (FLIPR) was more than 10 µM. In addition, the values for the maximum response (Emax) in assay [2] (FLIPR), in assay [3] (cAMP assay) and in assay [4] (FLIPR) were 19 to 49.9%, 80 to 100% and 19 to 49.9%, respectively.
For `CCOC(=O)N1CC2(CC[C@@H](N3CCN(c4cc(F)cnc4-c4cnn(CC)c4)CC3)C2)C1` [Compound A74], the EC50 in assay [1] (FLIPR calcium) is more than 10 µM. Moreover, the figures for the Emax in assay [3] (cAMP TR-FRET with forskolin) and in assay [4] (FLIPR calcium) were 80 to 100% and 19 to 49.9%, respectively.
